{
  "source": "paper PMC9105976",
  "about": "“A Novel β-Hairpin Peptide Z-d14CFR Enhances Multidrug-Resistant Bacterial Clearance in a Murine Model of Mastitis” (International Journal of Molecular Sciences, 2022)",
  "key": {"[1]": {"tested_on": "Gram-positive and Gram-negative bacteria", "experiment": "Antimicrobial activity, statements over the bacterial panel", "assay_type": "cell-based", "conditions": "data not shown", "description": "The MIC of peptides against bacteria was carried out by the microdilution broth method. The bacterial culture (OD 600 = 0.6) was diluted in 10 mM PBS to 1 × 10^6 CFU/mL. […]"}, "[2]": {"tested_on": "Klebsiella pneumoniae CAU202084", "experiment": "MIC/MBC, microdilution broth method", "assay_type": "cell-based", "conditions": "Klebsiella pneumoniae CAU202084 (MDR isolate)", "how_it_was_run": "(§1)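 Bacteria grown to OD600 0.6 were diluted in 10 mM PBS to 1 × 10^6 CFU/mL and mixed with an equal volume of peptide, ampicillin or gentamicin, added at 0.001 to 2 mg/mL before mixing.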"}, "[3]": {"tested_on": "Staphylococcus aureus ATCC29213", "experiment": "MIC/MBC, microdilution broth method", "assay_type": "cell-based", "conditions": "Staphylococcus aureus ATCC29213", "how_it_was_run": "as §1"}, "[4]": {"tested_on": "Escherichia coli ATCC25922", "experiment": "MIC/MBC, microdilution broth method", "assay_type": "cell-based", "conditions": "Escherichia coli ATCC25922", "how_it_was_run": "as §1"}, "[5]": {"tested_on": "Proteus vulgaris CVCC1971", "experiment": "MIC/MBC, microdilution broth method", "assay_type": "cell-based", "conditions": "Proteus vulgaris CVCC1971", "how_it_was_run": "as §1"}, "[6]": {"tested_on": "Escherichia coli CAU 201920", "experiment": "MIC/MBC, microdilution broth method", "assay_type": "cell-based", "conditions": "Escherichia coli CAU 201920 (MDR isolate)", "how_it_was_run": "as §1"}, "[7]": {"tested_on": "Escherichia coli CVCC1450", "experiment": "MIC/MBC, microdilution broth method", "assay_type": "cell-based", "conditions": "Escherichia coli CVCC1450", "how_it_was_run": "as §1"}, "[8]": {"tested_on": "Escherichia coli CAU 201919", "experiment": "MIC/MBC, microdilution broth method", "assay_type": "cell-based", "conditions": "Escherichia coli CAU 201919 (MDR isolate)", "how_it_was_run": "as §1"}, "[9]": {"tested_on": "Salmonella typhimurium ATCC14028", "experiment": "MIC/MBC, microdilution broth method", "assay_type": "cell-based", "conditions": "Salmonella typhimurium ATCC14028", "how_it_was_run": "as §1"}, "[10]": {"tested_on": "Streptococcus suis CVCC3307", "experiment": "MIC/MBC, microdilution broth method", "assay_type": "cell-based", "conditions": "Streptococcus suis CVCC3307", "how_it_was_run": "as §1"}, "[11]": {"tested_on": "Bacillus cereus CAU 202020", "experiment": "MIC/MBC, microdilution broth method", "assay_type": "cell-based", "conditions": "Bacillus cereus CAU 202020 (MDR isolate)", "how_it_was_run": "as §1"}, "[12]": {"tested_on": "Staphylococcus haemolyticus CAU202078", "experiment": "MIC/MBC, microdilution broth method", "assay_type": "cell-based", "conditions": "Staphylococcus haemolyticus CAU202078 (MDR isolate)", "how_it_was_run": "as §1"}, "MRSA ATCC33591": {"tested_on": "MRSA ATCC33591", "experiment": "MIC/MBC, microdilution broth method", "assay_type": "cell-based, S. aureus", "how_it_was_run": "as §1"}, "[13]": {"experiment": "Retention time of peptide in HPLC (hydrophobicity)", "assay_type": "physicochemical", "conditions": "used as measure of hydrophobicity (order Z-d14CR > Z-d14CF > Z-d13 > Z-d14CFR > Z-d14C); column and gradient not given"}, "[14]": {"conditions": "1 × 10^6 CFU/mL, 18 h at 37 °C, NA = no antimicrobial activity at 1 mg/mL"}, "[15]": {"conditions": "kills 99.9% bacteria, NA = no activity at 1 mg/mL"}, "[16]": {"conditions": "minimum concentration which kills 99.9% bacteria, NA = no activity at 1 mg/mL"}},
  "note": "Marks after values point to notes of the source that are not given here. No end group written: not given here.",
  "data": [
    {"substance": "GGYCNSKSVCVCR-NH2 (disulfide (positions not given here)) [Z-d13, Z. atratus defensin β-sheet region analogue, …-NH2]", "values": [
      {"measurement": "activity against bacteria at 3 mg/mL", "setting": "[1]", "value": "slight activity"},
      {"measurement": "MIC", "setting": "[2]; [14]", "value": "NA (NA) (No antimicrobial activity at 1 mg/mL)"},
      {"measurement": "MBC", "setting": "[2]; [15]", "value": "NA (NA) (No antimicrobial activity at 1 mg/mL)"},
      {"measurement": "MIC", "setting": "[3]; [14]", "value": "NA (NA) (No antimicrobial activity at 1 mg/mL)"},
      {"measurement": "MBC", "setting": "[3]; [15]", "value": "NA (NA) (No antimicrobial activity at 1 mg/mL)"},
      {"measurement": "MIC", "setting": "[4]; [14]", "value": "NA (NA) ^c (No antimicrobial activity at 1 mg/mL)"},
      {"measurement": "MBC", "setting": "[4]; [16]", "value": "NA (NA) ^c (No antimicrobial activity at 1 mg/mL)"},
      {"measurement": "MIC", "setting": "[5]; [14]", "value": "NA (NA) (No antimicrobial activity at 1 mg/mL)"},
      {"measurement": "MBC", "setting": "[5]; [15]", "value": "NA (NA) (No antimicrobial activity at 1 mg/mL)"},
      {"measurement": "MIC", "setting": "[6]; [14]", "value": "NA (NA) (No antimicrobial activity at 1 mg/mL)"},
      {"measurement": "MBC", "setting": "[6]; [15]", "value": "NA (NA) (No antimicrobial activity at 1 mg/mL)"},
      {"measurement": "MIC", "setting": "[7]; [14]", "value": "NA (NA) (No antimicrobial activity at 1 mg/mL)"},
      {"measurement": "MBC", "setting": "[7]; [16]", "value": "NA (NA) (No antimicrobial activity at 1 mg/mL)"},
      {"measurement": "MIC", "setting": "[8]; [14]", "value": "NA (NA) (No antimicrobial activity at 1 mg/mL)"},
      {"measurement": "MBC", "setting": "[8]; [15]", "value": "NA (NA) (No antimicrobial activity at 1 mg/mL)"},
      {"measurement": "MIC", "setting": "[9]; [14]", "value": "NA (NA) (No antimicrobial activity at 1 mg/mL)"},
      {"measurement": "MBC", "setting": "[9]; [15]", "value": "NA (NA) (No antimicrobial activity at 1 mg/mL)"},
      {"measurement": "MIC", "setting": "[10]; [14]", "value": "NA (NA) (No antimicrobial activity at 1 mg/mL)"},
      {"measurement": "MBC", "setting": "[10]; [15]", "value": "NA (NA) (No antimicrobial activity at 1 mg/mL)"},
      {"measurement": "MIC", "setting": "[11]; [14]", "value": "NA (NA) (No antimicrobial activity at 1 mg/mL)"},
      {"measurement": "MBC", "setting": "[11]; [15]", "value": "NA (NA) (No antimicrobial activity at 1 mg/mL)"},
      {"measurement": "MIC", "setting": "[12]; [14]", "value": "NA (NA) (No antimicrobial activity at 1 mg/mL)"},
      {"measurement": "MBC", "setting": "[12]; [15]", "value": "NA (NA) (No antimicrobial activity at 1 mg/mL)"},
      {"measurement": "MIC", "setting": "MRSA ATCC33591; MRSA (methicillin-resistant S. aureus) ATCC33591, 1 × 10^6 CFU/mL, 18 h at 37 °C, NA = no antimicrobial activity at 1 mg/mL", "value": "NA (NA) (No antimicrobial activity at 1 mg/mL)"},
      {"measurement": "MBC", "setting": "MRSA ATCC33591; MRSA ATCC33591, kills 99.9% bacteria, NA = no activity at 1 mg/mL", "value": "NA (NA) (No antimicrobial activity at 1 mg/mL)"},
      {"measurement": "RT, retention time of peptide in HPLC", "setting": "[13]", "value": 9.077, "unit": "min"}
    ]}
  ]
}
